Source: paper PMC11444265 (European journal of medicinal chemistry, 2021)
≈ marks a conversion by molar mass, not a printed value. Where “and” joins values, the source holds several entries; their conditions need not be identical. Equal entries are not always repeated. Entries after “also recorded” stand apart in the source; their conditions may differ. Each block holds one compound with its values, some of them ahead of it. Peptide text beside a SMILES is read from it. * marks the point of attachment. βNA = c1ccc2cc(N*)ccc2c1

Key:
Acinetobacter spp. = assay: MIC in low iron media, 198-member panel of Acinetobacter spp. clinical isolates; assay type: cell-based
[1] = test system: Acinetobacter spp. isolates resistant to 2; assay: MIC of 2 in combination with efflux pump inhibitors; assay type: cell-based; details: for direct effect of efflux pump inhibitor on growth: 2 μg/mL for CCCP and 32 μg/mL for PAβN
[2] = test system: P. aeruginosa AR-BANK#0229; assay: Neutropenic mouse thigh infection model; assay type: in vivo; details: 50 and 100 mg/kg SC q6h, neutropenic mice
[3] = mice; cited from earlier work
8 CYP enzymes = assay: CYP inhibition panel; assay type: in vitro ADME; details: 7 of the 8 CYP enzymes tested, 30 μM
[4] = Plasma protein binding, human; assay type: in vitro ADME
[5] = Pharmacokinetics in CD-1 mice, 50 mg/kg sc or iv; assay type: in vivo; details: for Sample Conc (individual mouse plasma): sc 50 mg/kg
[6] = Plasma protein binding, mouse; assay type: in vitro ADME
Caco-2 = Caco-2 permeability; assay type: in vitro ADME
[7] = test system: carbapenem-resistant A. baumannii (CRAB); assay: MIC in low iron media, 98-member carbapenem-resistant A. baumannii; assay type: cell-based
[8] = test system: human primary hepatocytes; assay: Cytotoxicity in human primary hepatocytes; assay type: cell-based; details: maximal dose of 100 μM
P. aeruginosa = assay type: cell-based, Pseudomonas aeruginosa; details: for susceptibility of strain: strain AR-BANK#0229
[9] = test system: MDR strains of K. pneumoniae, Acinetobacter spp., and P. aeruginosa; assay: MIC50 summary against MDR strains; assay type: cell-based
[10] = test system: 6 ion channels, including hERG; assay: Ion channel panel; details: 30 μM maximal dose
K. pneumoniae = assay type: cell-based; details: Klebsiella pneumoniae

MIC50 (Acinetobacter spp.; Acinetobacter): > 32 µg/mL | MIC90 (Acinetobacter spp.; Acinetobacter): > 32 µg/mL
Compound: C[C@H]1[C@H](NC(=O)/C(=N\OC(C)(C)C(=O)O)c2csc(N)n2)C(=O)N1S(=O)(=O)O [Aztreonam (3), aztreonam]

Compound: N#CC(C#N)=NNc1cccc(Cl)c1 [CCCP, carbonyl cyanide 3-chlorophenylhydrazone, reference compound]
direct effect of efflux pump inhibitor on growth [1]: No significant inhibition effect on growth

MIC90 (Acinetobacter spp.; Acinetobacter): > 64 µg/mL
Compound: CC(C)(O/N=C(\C(=O)N[C@@H]1C(=O)N2C(C(=O)[O-])=C(C[n+]3ccccc3)CS[C@H]12)c1csc(N)n1)C(=O)O [Ceftazidime (4), ceftazidime]

Compound: CC(C)(O/N=C(\C(=O)N[C@H]1CN2CC(C(=O)NCCN3C(=O)c4cc(O)c(O)cc4C3=O)=C(C(=O)O)N2C1=O)c1csc(N)n1)C(=O)O [Compound 1]
efficacy (thigh bacterial burden, CFU) [2]: not found to have efficacy | plasma concentration at the 6-hour timepoint [3]: about 0.35 mg/mL

Compound: CC(C)(O/N=C(\C(=O)N[C@H]1CN2CC(C(=O)NCCN3C(=O)c4cc(O)c(O)cc4C3=O)=C(C(=O)O)N2C1=O)c1nc(N)sc1Cl)C(=O)O [Compound 2, (S,Z)-6-(2-(2-amino-5-chlorothiazol-4-yl)-2-(((2-carboxypropan-2-yl)oxy)imino)acetamido)-2-((2-(5,6-dihydroxy-1,3-dioxoisoindolin-2-yl)ethyl)carbamoyl)-5-oxo-6,7-dihydro-1H,5H-pyrazolo[1,2-a]pyrazole-3-carboxylic acid]
CYP inhibition (8 CYP enzymes): does not inhibit | protein-bound [4]: 88% | plasma level at the 6h time point ([5]; CD-1 mice, by both dosing routes (sc and iv)): > 1000 µg/mL | Sample Conc (individual mouse plasma) ([5]; 0.167 h): 48689 ng/mL and 44921 ng/mL | Sample Conc (individual mouse plasma) ([5]; 0.5 h): 14355 ng/mL and 14094 ng/mL | Sample Conc (individual mouse plasma) ([5]; 1 h): 3515 ng/mL and 3186 ng/mL | Sample Conc (individual mouse plasma) ([5]; 2 h): 2876 ng/mL | Sample Conc (individual mouse plasma) ([5]; 4 h): 1534 ng/mL and 739 ng/mL | Sample Conc (individual mouse plasma) ([5]; 6 h): 1102 ng/mL and 1425 ng/mL | Sample Conc (individual mouse plasma) ([5]; 8 h): 1473 ng/mL and 1126 ng/mL | Sample Conc (individual mouse plasma) ([5]; 24 h): 545 ng/mL and 579 ng/mL | protein-bound [6]: 94% | Caco-2 permeability (Caco-2): poor Caco-2 permeability | efficacy (thigh bacterial burden, CFU) [2]: dose-dependent efficacy; also recorded: dose-dependent reduction in CFU values | susceptibility of panel (isolates susceptible) ([7]; 98 CRAB subset, cefiderocol breakpoint <=4 μg/mL applied, 81 out of 98): 83% | fraction of strains with MICs >=16 μg/mL ([7]; carbapenem-resistant subgroup, 15 of 98): 15% | cytotoxicity [8]: not found | MIC50 (P. aeruginosa; Pseudomonas aeruginosa): 500 µg/mL (≈ 693 µM) | MIC50 [9]: ≤ 0.5 µg/mL | ion channel inhibition [10]: did not inhibit these channels | effect of efflux pump inhibitors on MIC of 2 ([1]; combined with CCCP 2 μg/mL or PAβN 32 μg/mL): no consistent effect on MIC values | effect of combination with CCCP ([1]; isolate PR-452, CCCP 2 μg/mL): Potential synergistic effects | MIC50 (K. pneumoniae): 1000 µg/mL (≈ 1390 µM) | fraction of strains with MICs >=16 μg/mL (Acinetobacter spp.; 24 of 198 tested strains): 12% | MIC90 (Acinetobacter spp.; Acinetobacter): > 16 µg/mL | share of panel that could be susceptible (Acinetobacter spp.; full 198 member panel, 2 with 20 μg/mL coadministration of sulbactam): 98%

Compound: CC1(C)[C@H](C(=O)O)N2C(=O)C[C@H]2S1(=O)=O [Compound 10, sulbactam]
isolates with MICs <=16 μg/mL (Acinetobacter spp.; 24 isolates with MIC of 2 >=16 μg/mL, 19/24): 79%

MIC90 ([7]; Acinetobacter baumannii): > 64 µg/mL | MIC50 [9]: > 8 µg/mL | MIC90 (Acinetobacter spp.; Acinetobacter): > 64 µg/mL
Compound: C[C@@H](O)[C@H]1C(=O)N2C(C(=O)O)=C(S[C@@H]3CN[C@H](C(=O)N(C)C)C3)[C@H](C)[C@H]12 [Meropenem (5), meropenem, reference compound]

Compound: NC(N)=NCCC[C@H](NC(=O)[C@@H](N)Cc1ccccc1)C(=O)Nc1ccc2ccccc2c1 [PaβN, phenylalanine-arginine β-naphthylamide, reference compound] (H-Phe-Arg-βNA)
direct effect of efflux pump inhibitor on growth [1]: No significant inhibition effect on growth

Compound: NCC[C@H](O)C(=O)N[C@@H]1C[C@H](N)[C@@H](O[C@H]2O[C@H](CN)[C@@H](O)[C@H](O)[C@H]2O)[C@H](O)[C@H]1O[C@H]1O[C@H](CO)[C@@H](O)[C@H](N)[C@H]1O [amikacin]
susceptibility of strain (P. aeruginosa): susceptible

Compound: CNC(C)C1CCC(N)C(OC2C(N)CC(N)C(OC3OCC(C)(O)C(NC)C3O)C2O)O1 (stereo not shown) [gentamicin]
susceptibility of strain (P. aeruginosa): susceptible

Compound: colistin
susceptibility of strain (P. aeruginosa): susceptible
